Legend:
[1] = system: cells resistant or sensitive to the anticancer agent; assay: Time-lapse profiles of cells exposed to anticancer agent; type: cell-based; settings: cisplatin 1 μM, 5 μM, 10 μM in medium
Protocol: In this example, cisplatin was used as an exemplary anticancer agent and was mixed into the medium of exposed cells. The concentration of the anticancer agent was selected as appropriate, such as 1 μM, 5 μM, 10 μM, and the like, to observe the reaction of the cells. Cisplatin was applied to cells resistant or sensitive to the anticancer agent. Time-lapse observation was conducted to produce profiles as in the above-described examples.

HEK293 cells = assay: Solid phase transfection with actin-like acting substances (FIG. 1); type: cell-based, human; settings: pEGFP-N1, Effectene reagent, gelatin as control
Protocol: (§1) The final concentration of DNA was adjusted to 1 μg/μL. An actin-like acting substance was preserved as a stock having a concentration of 10 μg/μL in ddH2O. All dilutions were made using PBS, ddH2O, or Dulbecco's MEM. A series of dilutions, for example, 0.2 μg/μL, 0.27 μg/μL, 0.4 μg/μL, 0.53 μg/μL, 0.6 μg/μL, 0.8 μg/μL, 1.0 μg/μL, 1.07 μg/μL, 1.33 μg/μL, and the like, were formulated.
(§2) Transfection reagents and DNA were mixed to form a DNA-transfection reagent complex. Formation of the complex requires a certain period of time. Therefore, the mixture was spotted onto a solid phase support (e.g., a poly-L-lysine slide) using an arrayer. In Example 2, as a solid phase support, an APS slide, a MAS slide, and an uncoated slide were used as well as a poly-L-lysine slide. These slides are available from Matsunami Glass (Kishiwada, Japan) or the like.
(§3) 300 μL of DNA concentrated buffer (EC buffer)+16 μL of an enhancer were mixed in an Eppendorf tube. The mixture was mixed with a Vortex, followed by incubation for 5 minutes. 50 μL of a transfection reagent (Effectene, etc.) was added to the mixture, followed by mixing by pipetting. To apply a transfection reagent, an annular wax barrier was formed around the spots on the slide. 366 μL of the mixture was added to the spot region surrounded by the wax, followed by incubation at room temperature for 10 to 20 minutes. Thereby, the fixation to the support was manually achieved.
(§4) The growing cells were distributed to a concentration of 10^7 cells/25 mL. The cells were plated on the slide in a 100×100×15 mm squared Petri dish or a 100 mm (radius)×15 mm circular dish. Transfection was conducted for about 40 hours. This period of time corresponded to about 2 cell cycles. The slide was treated for immunofluorescence.
(§5) To quantify transfection efficiency, the present inventors use a DNA microarray scanner (GeneTAC UC4×4, Genomic Solutions Inc., MI). Total fluorescence intensity (arbitrary unit) was measured, and thereafter, fluorescence intensity per unit surface area was calculated.

[2] = system: cells on transfection array; assay: Transfection efficiency when fibronectin fragments were used (FIGS. 2-4); type: cell-based; settings: fibronectin fragments or RGD peptide as actin-like acting substance
Protocol: as §1, §2
300 μL of DNA concentrated buffer (EC buffer)+16 μL of an enhancer were mixed in an Eppendorf tube. The mixture was mixed with a Vortex, followed by incubation for 5 minutes. 50 μL of a transfection reagent (Effectene, etc.) was added to the mixture, followed by mixing by pipetting. […]
as §5

[3] = system: cells on transfection array; assay: Transfection at various fibronectin concentrations on coated and uncoated slides (FIG. 7); type: cell-based
Protocol: as §1, §2, §3, §4, §5

[4] = system: human mesenchymal stem cells (hMSC); assay: Cell adhesion profile and cross-sectional confocal observation in presence or absence of fibronectin (FIGS. 8-10); type: cell-based

In the case of `N.N.[Cl][Pt][Cl]` [cisplatin], the time-lapse profiles [1] is reported as “varied depending on the difference in cisplatin concentration and resistance/sensitivity”.
“RGD peptide (tripeptide) [reference compound]” was tested, and the “transfection (transfection efficiency)” value (HEK293 cells) was “substantially no effect” and the transfection activity [2] was “increased transfection efficiency was not exhibited”.
In the case of fibronectin, the “transfection (transfection efficiency)” value (HEK293 cells) is reported as “transfection took place to a significant level”, the “fibronectin concentration at which the effect was further increased” value ([3]; APS coating) is reported as > 1.07 µg/µL and the “fibronectin concentration at which transfection efficiency reached a plateau” value ([3]; PLL coating) is reported as “more than 0.53 μg/μL”. For the same compound, the “fibronectin concentration at which transfection efficiency reached a plateau” value ([3]; absence of coating) was “more than 0.53 μg/μL”, the “transfection efficiency versus fibronectin concentration” value ([3]; fibronectin 0, 0.27, 0.53, 0.8, 1.07, 1.33 μg/μL, FIG. 7) was “increased with an increase in fibronectin concentration” and the “surface area of the nucleus” value ([4]; in the presence of fibronectin, FIG. 10) was “significantly increased”. The “extension of adherent cells” value ([4]; initial 3 hours of culture in the presence of fibronectin, FIG. 9) was “full extension of cells”.
gelatin [reference compound] was tested, and the “transfection (transfection efficiency)” value (HEK293 cells) was “not very successful”.
With laminin the “transfection (transfection efficiency)” value (HEK293 cells) was “transfection took place to a significant level”.
